Measured values published in patent US10544113B2 (priority 2016, dated 2020).
pEC50: −log10 of the molar value. Read-outs that look alike come from different tables or passages of the source.

Molecular target: mu-opioid receptor (MOR) (Homo sapiens (Human), UniProt P35372)
Test: cell-based
Settings: combined with a MOR antagonist; for AUC: AUC of [Ca2+]i fluorescence
Procedure: In an exemplary in vitro screening method for identifying antagonist-to-agonist allosteric modifiers of a MOR, cells that express a MOR are treated with a test compound and a MOR antagonist in a cellular calcium fluorescent assay and fluorescence intensity is then measured to determine whether the MOR is activated. A test compound is identified as an antagonist-to-agonist allosteric modifier of the MOR if the MOR is activated.
EC50 herein refers to the concentration of a compound that induces a response halfway between the baseline and the maximum after a specified exposure time. AUC refers to the area under the response curve, an indication of the compound's capability of activating a MOR when combined with a MOR antagonist.
Human embryonic kidney 293 (HEK-293) cells constitutively expressing MOR (HEK-MOR) and DOR (HEK-DOR) (kindly provided by Dr. Ping-Yee Law, University of Minnesota, USA) were cultured in high-glucose Dulbecco's modified Eagle's medium (DMEM, GIBCO) supplemented with 400 μg/mL G418 (Sigma), 2 mM L-glutamine and P/S/F (100 units/mL penicillin, 100 μg/mL streptomycin, 10% fetal bovine serum). Chinese hamster ovary (CHO)-K1 cells, stably expressing hMOR and Gα15 (CHO-K1/MOR/Gα15), were cultured in F12 medium (GIBCO) supplemented with 10 μg/mL Hygromycin B (Invivogen), 20 μg/mL Zeocin (Invivogen) P/S/F (100 units/mL penicillin, 100 μg/mL streptomycin, 10% fetal bovine serum). The cultures were incubated at 37° C. in a humidified 5% CO2 incubator.
One day before the assay, CORNING® black with clear flat bottom 96-well assay plates were coated with a 0.1 mg/mL Poly-L-Lysine solution. CHO-K1/MOR/Gα15 cells were suspended in the F12 medium and plated at a density of ˜8×10^4 cells/well in 200 μL medium. Cells were incubated in a humidified atmosphere of 10% CO2 at 37° C. overnight so as to reach an 80-90% confluent cell monolayer before assay. At the day of assay, 150 μL medium/well was removed from plate. To each well, 50 μL FLIPR® calcium assay reagent dissolved in 1× assay buffer (HBSS: KCl 5 mM, KH2PO4 0.3 mM, NaCl 138 mM, NaHCO3 4 mM, Na2HPO4 0.3 mM, d-glucose 5.6 mM, with additional 20 mM HEPES and 13 mM CaCl2, pH 7.4), with 2.5 mM probenecid was added and the plate was incubated at 37° C. for 1 h. Compounds and other reagents were dissolved in the assay buffer. Using a FlexStationIII (Molecular Devices Corp.), the [Ca^2+]i fluorescence increases after robotic injections of compounds or other reagents were monitored every 1.52 s interval with excitation wavelength at 485 nm and with emission wavelength at 525 nm. The [Ca^2+]i fluorescence was measured up to 90 s after agonist injection.
A CHO-K1 cell line, expressing a MOR and Gα15 (GenScript), was used to set up a sensitive high-throughput screen (HTS) system. In a FLIPR® calcium assay using CHO-K1/MOR/Gα15 cells, activation of MOR elicits an intracellular calcium release leading to an increase in the relative fluorescence units (FRU). […] The HTS was performed in the absence or presence of an opioid antagonist, naloxone (25 nM), to identify antagonist to agonist allosteric modifiers (AAM).
A CHO-K1 cell line, expressing a MOR and Gα15 (GenScript), was used to set up a sensitive assay system for detecting μ-opioid receptor activation. […] The assay was performed in the presence of an opioid antagonist, i.e., naloxone (25 nM), naltrexone (20 nM), samidorphan (10 nM), naloxonazine dihydrochloride (20 nM), β-funaltrexamine hydrochloride (20 nM), cyprodime hydrochloride (500 nM), or nalmefene (20 nM), in combination with compound 58, an antagonist to agonist allosteric modifier (AAM), to identify activation of the μ-opioid receptor.

mu-opioid receptor (MOR), sequence (P35372 whole entry): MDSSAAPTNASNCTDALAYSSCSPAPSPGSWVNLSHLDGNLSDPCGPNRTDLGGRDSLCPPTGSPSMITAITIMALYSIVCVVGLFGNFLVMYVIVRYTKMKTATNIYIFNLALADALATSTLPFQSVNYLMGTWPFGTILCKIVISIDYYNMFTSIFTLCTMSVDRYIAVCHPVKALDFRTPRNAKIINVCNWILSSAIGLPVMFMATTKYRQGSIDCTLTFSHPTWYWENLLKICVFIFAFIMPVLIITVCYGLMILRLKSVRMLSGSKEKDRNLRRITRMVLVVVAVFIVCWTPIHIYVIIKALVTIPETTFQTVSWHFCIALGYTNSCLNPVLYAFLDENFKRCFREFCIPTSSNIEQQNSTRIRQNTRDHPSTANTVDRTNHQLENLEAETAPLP

Row | Molecule | AUC (CHO-K1/MOR/Gα15 cells) | pEC50 (EC50, CHO-K1/MOR/Gα15 cells) | FLIPR Ca^2+ AUC | pEC50 (read-out: FLIPR Ca^2+ EC50) | pEC50 (CHO-K1/MOR/Gα15 cells, read-out: EC50)
1 | Cc1cc(C(=O)NS(=O)(=O)C2CC2)ccc1N1C(=O)CSC1c1ccc(F)cc1 (centres unmarked) [Example 169] | more than 5000 | > 5.00 | 13189 | 5.52 | –
2 | CCOCCOC(=O)c1ccc(N2C(=O)CSC2c2ccc(F)cc2)c(C)c1 (centres unmarked) [Example 281] | – | – | 9792 | 5.35 | –
3 | Cc1cc(C(=O)NCc2cc(F)cc(F)c2)ccc1N1C(=O)CSC1c1ccc(F)cc1 (centres unmarked) [Example 381] | more than 5000 | > 5.00 | 6035 | 5.09 | –
4 | COC(=O)Cc1ccc(N2C(=O)CSC2c2ccc(F)cc2)c(C)c1 (centres unmarked) [Example 96] | more than 5000 | > 5.00 | 9657 | 5.00 | –
5 | COC[C@@H]1CCCN1C(=O)c1ccc(N2C(=O)CSC2c2ccc(F)cc2)c(C)c1 (some centres unmarked) [Example 355] | – | – | 12691 | 5.00 | –
6 | Cc1cc(C(=O)OCCCc2ccccn2)ccc1N1C(=O)CSC1c1ccc(F)cc1 (centres unmarked) [Example 263] | more than 5000 | > 5.00 | 14918 | 5.04 | –
7 | Cc1cc(C(=O)NCCCN(C)C)ccc1N1C(=O)CSC1c1ccc(F)cc1 (centres unmarked) [Example 342] | – | – | 16741 | 5.48 | –
8 | COc1cc(C)c(N2C(=O)CSC2c2ccc(F)cc2)cc1OC (centres unmarked) [Example 52] | – | – | 7780 | 5.44 | –
9 | Cc1cc(C(=O)OC2CCN(C)CC2)ccc1N1C(=O)CSC1c1ccc(F)cc1 (centres unmarked) [Example 301] | – | – | 9593 | 6.05 | –
10 | Cc1cc(C(=O)OCCN(C)C)ccc1N1C(=O)CSC1c1ccc(F)cc1 (centres unmarked) [Example 290] | – | – | 14778 | 5.00 | –
11 | Cc1cc(C(=N)NO)ccc1N1C(=O)CSC1c1ccc(F)cc1 (centres unmarked) [Example 151] | more than 5000 | > 5.00 | 10591 | 5.47 | –
12 | Cc1cc(C(=O)NCCc2ccc(F)cc2)ccc1N1C(=O)CSC1c1ccc(F)cc1 (centres unmarked) [Example 387] | – | – | 5770 | 5.40 | –
13 | CCCNC(=O)c1ccc(N2C(=O)CSC2c2ccc(F)cc2)c(C)c1 (centres unmarked) [Example 334] | – | > 5.00 | 9672 | 5.24 | –
14 | Cc1ccc(N2C(=O)CSC2c2ccc(F)cc2)c(C)c1 (centres unmarked) [Example 102] | – | > 5.00 | – | – | –
15 | COc1ccc(C2SCC(=O)N2c2ccc(C(=O)O)cc2C)cc1 (centres unmarked) [Example 78] | more than 5000 | > 5.00 | 9368 | 5.22 | –
16 | Cc1cc(C(=O)OC2COC(C)(C)OC2)ccc1N1C(=O)CSC1c1ccc(F)cc1 (centres unmarked) [Example 277] | – | > 5.00 | 14634 | 5.21 | –
17 | Cc1cc(C(=O)NS(=O)(=O)c2cccc(F)c2)ccc1N1C(=O)CSC1c1ccc(F)cc1 (centres unmarked) [Example 194] | more than 5000 | > 5.00 | 19019 | 6.70 | –
18 | Cc1c(F)cccc1N1C(=O)CSC1c1ccc(F)cc1 (centres unmarked) [Example 109] | – | – | 9614 | 5.59 | –
19 | Cc1cc(C(=O)OCCOCc2ccccc2)ccc1N1C(=O)CSC1c1ccc(F)cc1 (centres unmarked) [Example 258] | more than 5000 | > 5.00 | 6353 | 5.48 | –
20 | 4-[2-(4-Fluorophenyl)-4-oxo-1,3-thiazolidin-3-yl]-N-methoxy-3-methylbenzamide [Example 154] | more than 5000 | – | 15447 | 5.43 | > 5.00
21 | Cc1cc(C(=O)OCCCN2CCCCC2)ccc1N1C(=O)CSC1c1ccc(F)cc1 (centres unmarked) [Example 298] | – | – | 9283 | 5.77 | –
22 | Cc1cc(C(=O)NS(=O)(=O)c2ccccc2)ccc1N1C(=O)CSC1c1ccc(F)cc1 (centres unmarked) [Example 183] | more than 5000 | > 5.00 | 12230 | 5.72 | –
